Data as given in patent US12290535B2, “Langerin+ cell targeting” (Max-Planck-Gesellschaft zur Förderung der Wissenschaften …, priority 2018, dated 2025).

How the values were obtained:
Assay type in all cases: binding
Langerin ECD = biological target: T1, Langerin ECD (Homo sapiens, UniProt Q9UJ71, V278A); assay: 19F R2-filtered NMR reporter displacement assay (Ki determination); details: Langerin ECD 50 μM, pH 7.8, 25° C.
T1 construct: residues 148 to 328; TEV site (C); StreptagII (C); made in house; host or cells: E. coli BL21* (DE3)
Experimental: Langerin extracellular domain. Expression and purification were conducted as previously published (Wamhoff, E. C. et al. (19)F Nmr-Guided Design of Glycomimetic Langerin Ligands. ACS Chem Biol, 11, 2407-13 (2016)). Briefly, the trimeric Langerin extracellular domain (ECD) was expressed insolubly in E. coli BL21* (DE3) (Invitrogen). Following enzymatic cell lysis, inclusion bodies were harvested and subsequently solubilized. The sample was centrifuged and the Langerin ECD was refolded overnight via rapid dilution. Next, the sample was dialyzed overnight, centrifuged and purified via mannan-agarose affinity chromatography (Sigma Aldrich). For ^19F R2-filtered NMR and lipid-enzyme-linked lectin assay (Lipid-ELLA) experiments, the buffer was exchanged to 25 mM Tris with 150 mM NaCl and 5 mM CaCl2 at pH 7.8 using 7 kDa size-exclusion desalting columns (Thermo Scientific). For STD NMR experiments, Langerin ECD samples were dialyzed five times for at least 8 h against H2O. Subsequently, the H2O was removed via lyophilization and the residue was stored at −80° C. Prior to STD NMR experiments, the Langerin ECD was dissolved in 25 mM Tris-d11 (Eurisotope) with 100% D2O, 150 mM NaCl and 5 mM CaCl2 at pH 7. The concentration of Langerin ECD was determined via UV spectroscopy (A280, 0.1%=2.45). Purity and monodispersity of Langerin ECD samples were analyzed via SDS PAGE and DLS.
General remarks. ^19F R2-filtered NMR experiments were conducted on a PremiumCompact 600 MHz spectrometer (Agilent). Spectra were processed in MestReNova and data analysis was performed with OriginPro (Mestrelab Research. Mestrenova. 11.0.2. (2016); OriginLab. Originpro. 9.1. (2015)). Experiments with the Langerin ECD were performed at a receptor concentration of 50 μM in 25 mM Tris with 10% D2O, 150 mM NaCl and 5 mM CaCl2 at pH 7.8 and 25° C. Experiments with the DC-SIGN CRD were performed at a receptor concentration of 50 μM in 25 mM HEPES with 10% D2O, 150 mM NaCl and 5 mM CaCl2 at pH 7.0 and 25° C. TFA served as an internal reference at a concentration of 50 μM. Apparent relaxation rates R2,obs for the reporter ligand were determined using the CPMG pulse sequence as previously published (Wamhoff, E. C. et al. (19)F Nmr-Guided Design of Glycomimetic Langerin Ligands. ACS Chem Biol, 11, 2407-13 (2016): Carr, H. Y. & Purcell, E. M. Effects of Diffusion on Free Precession in Nuclear Magnetic Resonance Experiments. Phys Rev, 94, 630-638 (1954); Meiboom, S. & Gill, D. Modified Spin-Echo Method for Measuring Nuclear Relaxation Times. Rev Sci Instrum 29, 688-691 (1958)).
Ki determination. Ki values were determined as previously published for Langerin (Wamhoff, E. C. et al. (19)F NMR-Guided Design of Glycomimetic Langerin Ligands. ACS Chem Biol 11, 2407-13 (2016)). Briefly, titration experiments were conducted at a concentration of 0.1 mM of reporter ligand 24 at five competitor concentrations [I]T. Samples were prepared via serial dilution. For the acids GlcNS, GlcNAc-6-OS and GlcNS-6-OS the pH values were monitored and adjusted to 7.8 if necessary.

DC-SIGN CRD [1] = assay: 19F R2-filtered NMR reporter displacement assay transferred to DC-SIGN; details: Ki Langerin compared to Ki DC-SIGN
Experimental: (§1) Langerin and DC-SIGN carbohydrate recognition domain. Expression and purification were conducted as previously published. Briefly, the monomeric ^15N-labeled Langerin and DC-SIGN carbohydrate recognition domains (CRDs) were expressed insolubly in E. coli BL21* (DE3) (Invitrogen). Following enzymatic cell lysis, inclusion bodies were harvested and subsequently solubilized. The sample was centrifuged and the Langerin and DC-SIGN CRDs were refolded overnight via rapid dilution. Next, the sample was dialyzed overnight, centrifuged and purified via StrepTactin affinity chromatography (Iba). After an additional dialysis step overnight, the sample was centrifuged and the buffer was exchanged to 25 mM HEPES with 150 mM NaCl at pH 7.0 using 7 kDa size-exclusion desalting columns (Thermo Scientific) for ^19F R2-filtered and ^15N HSQC NMR experiments. The concentration of Langerin and DC-SIGN CRDs was determined via UV spectroscopy (A280, 0.1%=3.19 and A280, 0.1%=2.98). Purity and monodispersity of Langerin and DC-SIGN CRD samples were analyzed via SDS PAGE and DLS.
(§2) General remarks. ^19F R2-filtered NMR experiments were conducted on a PremiumCompact 600 MHz spectrometer (Agilent). […] Apparent relaxation rates R2,obs for the reporter ligand were determined using the CPMG pulse sequence as previously published (Wamhoff, E. C. et al. (19)F Nmr-Guided Design of Glycomimetic Langerin Ligands. ACS Chem Biol, 11, 2407-13 (2016): Carr, H. Y. & Purcell, E. M. Effects of Diffusion on Free Precession in Nuclear Magnetic Resonance Experiments. Phys Rev, 94, 630-638 (1954); Meiboom, S. & Gill, D. Modified Spin-Echo Method for Measuring Nuclear Relaxation Times. Rev Sci Instrum 29, 688-691 (1958)).
(§3) Assay development for DC-SIGN. […] Briefly, the KD value and the relaxation rate in bound state R2,b were determined at five concentrations [L]T of reporter ligand 24 in three independent titration experiments. […]
(§4) Ki determination. Ki values were determined as previously published for Langerin (Wamhoff, E. C. et al. (19)F NMR-Guided Design of Glycomimetic Langerin Ligands. ACS Chem Biol 11, 2407-13 (2016)). […]

DC-SIGN CRD [2] = biological target: T2, DC-SIGN CRD (Homo sapiens, UniProt Q9NNX6); assay: as above; details: 19F R2-filtered NMR, DC-SIGN CRD 50 μM, pH 7.0, 25° C.
T2 construct: residues 205 to 404; TEV site (C); StreptagII (C); made in house; host or cells: E. coli BL21* (DE3)
T2 sequence (Q9NNX6 250-404): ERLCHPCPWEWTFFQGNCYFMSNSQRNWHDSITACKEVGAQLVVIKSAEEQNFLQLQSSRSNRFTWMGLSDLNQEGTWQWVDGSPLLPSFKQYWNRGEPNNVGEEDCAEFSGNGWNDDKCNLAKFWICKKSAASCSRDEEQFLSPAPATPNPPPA
Experimental: as §1, §2, §3, §4

T1 sequence (Q9UJ71 148-328 V278A): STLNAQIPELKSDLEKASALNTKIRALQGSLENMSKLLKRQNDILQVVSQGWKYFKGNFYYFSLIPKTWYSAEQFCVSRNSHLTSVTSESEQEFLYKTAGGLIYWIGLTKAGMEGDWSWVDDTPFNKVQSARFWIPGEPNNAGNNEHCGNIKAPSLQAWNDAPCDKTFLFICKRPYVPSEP

For `CC(=O)NCCO[C@H]1O[C@H](CO)[C@@H](O)[C@H](O)[C@@H]1O` [Man analog 21], the Ki (Langerin ECD) was 10 ± 1 mM, the “specificity for DC-SIGN over Langerin” value (DC-SIGN CRD [1]) was 3.7 fold and the Ki (DC-SIGN CRD [2]) was 2.7 ± 0.3 mM.
